Calls of active or inactive are those of the source. The rule behind the calls is not given here.
What was measured:
[1] = Therapeutic index, ratio of IC50 for african green monkey Vero cells to IC50 for human MCF7 cells expressing ERalpha and ERbeta; conditions: Vero cells versus MCF7 cells expressing ERalpha and ERbeta
Histone deacetylase 1 = Histone deacetylase 1 (Homo sapiens, UniProt Q13547); assay: Inhibition of human recombinant HDAC1 after 30 mins by fluorescence assay
MCF7 [2] = assay: Cytotoxicity against human MCF7 cells expressing ERalpha and ERbeta assessed as growth inhibition after 72 hrs by MTT assay; format: functional, cell-based; conditions: MCF7, 72 h
[3] = biological target: Estrogen receptor beta (Homo sapiens) (UniProt Q92731); assay: Agonist activity at Gal4 DBD-fused human ERbeta LBD expressed in HEK293T cells at 10 uM after 40 hrs by luciferase reporter gene assay; format: cell-based; conditions: HEK-293T
Sequence of Estrogen receptor beta (Homo sapiens) (Q92731 whole entry, the tested form may be a part): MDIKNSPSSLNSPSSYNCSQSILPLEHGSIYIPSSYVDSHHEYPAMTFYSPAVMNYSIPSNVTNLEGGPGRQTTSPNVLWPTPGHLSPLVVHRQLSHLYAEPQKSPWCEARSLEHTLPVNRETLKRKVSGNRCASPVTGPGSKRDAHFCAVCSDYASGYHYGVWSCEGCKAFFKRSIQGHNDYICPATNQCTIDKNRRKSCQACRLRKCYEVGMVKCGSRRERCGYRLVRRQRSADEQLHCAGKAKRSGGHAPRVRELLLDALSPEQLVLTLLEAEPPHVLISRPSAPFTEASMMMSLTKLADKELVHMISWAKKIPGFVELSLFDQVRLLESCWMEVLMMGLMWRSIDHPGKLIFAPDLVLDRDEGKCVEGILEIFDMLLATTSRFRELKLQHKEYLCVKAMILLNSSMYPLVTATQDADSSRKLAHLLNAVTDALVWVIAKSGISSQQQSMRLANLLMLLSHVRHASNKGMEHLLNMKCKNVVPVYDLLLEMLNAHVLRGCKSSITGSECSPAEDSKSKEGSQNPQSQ

Histone deacetylase 8 = biological target: T1, Histone deacetylase 8 (Homo sapiens, UniProt Q9BY41); assay: Inhibition of human recombinant HDAC8 after 30 mins by fluorescence assay
T1 sequence (Q9BY41 whole entry): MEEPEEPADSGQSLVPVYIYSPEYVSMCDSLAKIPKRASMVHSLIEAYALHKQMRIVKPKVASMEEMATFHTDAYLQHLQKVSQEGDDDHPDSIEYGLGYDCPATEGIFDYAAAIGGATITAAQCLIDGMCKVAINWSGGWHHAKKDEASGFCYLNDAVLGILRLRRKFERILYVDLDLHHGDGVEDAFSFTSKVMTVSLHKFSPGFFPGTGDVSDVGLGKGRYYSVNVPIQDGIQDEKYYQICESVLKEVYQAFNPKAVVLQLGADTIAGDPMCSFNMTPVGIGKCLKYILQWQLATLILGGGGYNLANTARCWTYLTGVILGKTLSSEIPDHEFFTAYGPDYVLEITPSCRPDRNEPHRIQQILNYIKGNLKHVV

MDA-MB-231 = assay: Cytotoxicity against ERalpha and ERbeta-deficient human MDA-MB-231 cells assessed as growth inhibition after 72 hrs by MTT assay; format: functional, cell-based; conditions: MDA-MB-231, 72 h
[4] = biological target: T2, Protein deacetylase HDAC6 (Homo sapiens, UniProt Q9UBN7); assay: Inhibition of human recombinant HDAC6 after 30 mins by fluorescence assay
T2 sequence (Q9UBN7 whole entry): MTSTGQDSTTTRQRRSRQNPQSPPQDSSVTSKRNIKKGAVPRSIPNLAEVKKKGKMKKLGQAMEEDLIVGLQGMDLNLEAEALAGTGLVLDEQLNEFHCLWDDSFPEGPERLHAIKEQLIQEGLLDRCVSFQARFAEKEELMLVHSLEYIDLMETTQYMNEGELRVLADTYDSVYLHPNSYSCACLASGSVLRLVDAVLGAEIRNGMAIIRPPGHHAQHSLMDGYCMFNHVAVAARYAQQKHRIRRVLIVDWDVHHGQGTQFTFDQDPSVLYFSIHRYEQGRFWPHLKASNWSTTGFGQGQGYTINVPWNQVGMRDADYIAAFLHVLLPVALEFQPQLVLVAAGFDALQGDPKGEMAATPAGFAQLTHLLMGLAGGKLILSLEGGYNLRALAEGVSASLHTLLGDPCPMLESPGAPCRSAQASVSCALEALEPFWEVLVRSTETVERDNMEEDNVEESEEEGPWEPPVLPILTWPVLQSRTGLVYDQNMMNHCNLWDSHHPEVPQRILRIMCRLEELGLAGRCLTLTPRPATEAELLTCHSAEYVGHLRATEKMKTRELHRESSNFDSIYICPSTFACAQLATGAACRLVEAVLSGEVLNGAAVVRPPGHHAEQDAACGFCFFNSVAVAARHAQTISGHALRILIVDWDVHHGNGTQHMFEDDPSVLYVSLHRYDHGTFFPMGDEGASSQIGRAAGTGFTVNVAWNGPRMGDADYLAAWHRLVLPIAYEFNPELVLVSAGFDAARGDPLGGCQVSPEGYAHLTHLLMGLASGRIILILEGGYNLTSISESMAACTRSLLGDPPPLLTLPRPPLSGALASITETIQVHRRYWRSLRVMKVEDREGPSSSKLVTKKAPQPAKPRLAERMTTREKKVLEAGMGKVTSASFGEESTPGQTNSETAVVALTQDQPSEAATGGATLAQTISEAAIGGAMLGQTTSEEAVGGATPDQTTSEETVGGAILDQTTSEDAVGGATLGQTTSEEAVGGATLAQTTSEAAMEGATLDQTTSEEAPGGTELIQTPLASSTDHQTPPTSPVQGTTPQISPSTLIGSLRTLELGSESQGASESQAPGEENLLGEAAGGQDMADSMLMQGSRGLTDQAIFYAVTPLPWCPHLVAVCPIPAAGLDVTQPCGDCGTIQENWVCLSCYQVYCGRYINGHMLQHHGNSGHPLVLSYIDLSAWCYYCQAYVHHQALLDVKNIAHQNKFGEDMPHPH

DU-145 = assay: Cytotoxicity against ERalpha-deficient human DU145 cells expressing ERbeta assessed as growth inhibition after 72 hrs by MTT assay; format: functional, cell-based; conditions: DU-145, 72 h
Estrogen receptor = biological target: T3, Estrogen receptor (Homo sapiens, UniProt P03372); assay: Antagonist activity at Gal4 DBD-fused human ERalpha LBD expressed in HEK293T cells assessed as inhibition of estradiol-induced transcriptional activation after 20 hrs by luciferase reporter gene assay; format: cell-based, HEK-293T
T3 sequence (P03372 whole entry): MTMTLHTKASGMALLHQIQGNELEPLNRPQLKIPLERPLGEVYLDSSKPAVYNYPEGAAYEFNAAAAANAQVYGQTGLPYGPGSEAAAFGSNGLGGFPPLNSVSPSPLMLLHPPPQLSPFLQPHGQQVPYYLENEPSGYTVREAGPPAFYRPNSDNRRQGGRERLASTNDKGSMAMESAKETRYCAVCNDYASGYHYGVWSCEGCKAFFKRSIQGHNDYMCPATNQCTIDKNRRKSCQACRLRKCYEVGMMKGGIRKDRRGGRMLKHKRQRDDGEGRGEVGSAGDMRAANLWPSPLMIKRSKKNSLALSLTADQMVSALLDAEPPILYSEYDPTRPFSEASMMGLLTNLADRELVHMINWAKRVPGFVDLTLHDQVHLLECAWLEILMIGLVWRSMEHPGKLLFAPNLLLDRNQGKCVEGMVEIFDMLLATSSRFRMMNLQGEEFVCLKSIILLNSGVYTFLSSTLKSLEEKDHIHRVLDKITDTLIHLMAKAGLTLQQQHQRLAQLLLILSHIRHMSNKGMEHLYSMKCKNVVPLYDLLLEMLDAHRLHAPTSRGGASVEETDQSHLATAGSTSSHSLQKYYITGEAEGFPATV

MCF7 [5] = assay: Ratio of tamoxifen IC50 to compound IC50 for human MCF7 cells expressing ERalpha and ERbeta; format: functional
Vero = assay: Cytotoxicity against african green monkey Vero cells assessed as growth inhibition after 72 hrs by MTT assay; format: ADME, cell-based; conditions: Chlorocebus sabaeus

Sequence of Histone deacetylase 1 (Q13547 whole entry): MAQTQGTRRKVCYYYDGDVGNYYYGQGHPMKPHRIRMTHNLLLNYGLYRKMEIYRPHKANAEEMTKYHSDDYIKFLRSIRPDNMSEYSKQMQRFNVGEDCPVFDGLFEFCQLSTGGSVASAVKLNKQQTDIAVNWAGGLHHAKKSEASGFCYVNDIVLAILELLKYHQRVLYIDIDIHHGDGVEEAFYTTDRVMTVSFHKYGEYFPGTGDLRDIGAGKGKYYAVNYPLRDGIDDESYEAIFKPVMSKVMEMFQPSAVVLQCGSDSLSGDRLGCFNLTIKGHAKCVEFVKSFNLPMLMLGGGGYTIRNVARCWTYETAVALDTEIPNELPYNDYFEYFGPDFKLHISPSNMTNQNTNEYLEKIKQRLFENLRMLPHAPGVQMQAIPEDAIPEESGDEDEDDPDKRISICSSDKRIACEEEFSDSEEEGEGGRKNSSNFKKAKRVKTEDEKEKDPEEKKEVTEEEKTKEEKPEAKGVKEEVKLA

With `C[C@]12CC[C@@H]3c4ccc(O)cc4CC[C@H]3[C@@H]1CC[C@@]2(O)c1cn(CCCC(=O)NO)nn1` the selectivity ratio [1] was > 1.82, the IC50 (Histone deacetylase 1) was 15 nM and the IC50 (MCF7 [2]) was 22 µM. The Activity [3] was “Active”, the IC50 (Histone deacetylase 8) was 11 µM and the IC50 (MDA-MB-231) was 28.4 µM. It also gave an IC50 [4] of 8 nM.
In the case of `C[C@]12CC[C@@H]3c4ccc(O)cc4CC[C@H]3[C@@H]1CC[C@@]2(O)c1cn(CCCCC(=O)NO)nn1`, the IC50 (Histone deacetylase 1) is reported as 400 nM, the Activity [3] is reported as “Active” and the IC50 (Histone deacetylase 8) is reported as 5 µM. For the same compound, the IC50 [4] was 140 nM.
`C#C[C@]1(O)CC[C@H]2[C@@H]3CCc4cc(O)ccc4[C@H]3CC[C@@]21C` [ETHINYL ESTRADIOL] gave an IC50 (MDA-MB-231) of 32.9 µM.
For `C[C@]12CC[C@@H]3c4ccc(O)cc4CC[C@H]3[C@@H]1CC[C@@]2(O)c1cn(CCCCCCC(=O)NO)nn1`, the IC50 (Histone deacetylase 1) was 28 nM, the IC50 (MCF7 [2]) was 37.3 µM and the Activity [3] was “Active”. For the same compound, the IC50 (Histone deacetylase 8) was 0.45 µM, the IC50 (MDA-MB-231) was 14.1 µM and the IC50 (DU-145) was 27 µM. For the same compound, the IC50 [4] was 13 nM.
`CC(O)(CS(=O)(=O)c1ccc(F)cc1)C(=O)Nc1ccc(C#N)c(C(F)(F)F)c1` (configuration not stated) [BICALUTAMIDE] showed an IC50 (DU-145) of 18 µM.
With `C[C@]12CC[C@@H]3c4ccc(O)cc4CC[C@H]3[C@@H]1CC[C@@]2(O)c1cn(CCCCCCCC(=O)NO)nn1` the IC50 (Histone deacetylase 1) was 9000 nM, the Activity [3] was “Active” and the IC50 (Histone deacetylase 8) was 20 µM. For the same compound, the IC50 (MDA-MB-231) was 33.9 µM and the IC50 [4] was 1300 nM.
For `C[C@]12CC[C@@H]3c4ccc(O)cc4CC[C@H]3[C@@H]1CC[C@@]2(O)c1cn(CCCCCC(=O)NO)nn1`, the IC50 (Histone deacetylase 1) was 75 nM, the Activity [3] was “Active” and the IC50 (Histone deacetylase 8) was 4 µM. It also gave an IC50 (MDA-MB-231) of 22.6 µM, an IC50 (DU-145) of 26.9 µM and an IC50 [4] of 32 nM.
Work on `CC/C(=C(\c1ccccc1)c1ccc(OCCN(C)Cc2ccc(-c3cn(CCCCCC(=O)NO)nn3)cc2)cc1)c1ccccc1` yielded a selectivity ratio [1] of 1.26, an IC50 (Estrogen receptor) of 248 nM and an IC50 (Histone deacetylase 1) of 524 nM. The IC50 (MCF7 [2]) was 7.2 µM, the IC50 (MDA-MB-231) was 10 µM and the “Ratio IC50” value (MCF7 [5]) was 2. For the same compound, the IC50 (Vero) was 9.1 µM, the IC50 (DU-145) was 20.6 µM and the IC50 [4] was 567 nM.
In the case of `CC/C(=C(\c1ccccc1)c1ccc(OCCN(C)C)cc1)c1ccccc1` [TAMOXIFEN], the IC50 (MCF7 [2]) is reported as 15.6 µM, the IC50 (MDA-MB-231) is reported as 17 µM and the IC50 (Vero) is reported as 15.9 µM.
With `CC/C(=C(\c1ccccc1)c1ccc(OCCN(C)Cc2ccc(NC(=O)CCCCCCC(=O)NO)cc2)cc1)c1ccccc1` the selectivity ratio [1] was 0.95, the IC50 (Estrogen receptor) was 127 nM and the IC50 (Histone deacetylase 1) was 2700 nM. The IC50 (MCF7 [2]) was 3.8 µM, the IC50 (MDA-MB-231) was 8.1 µM and the “Ratio IC50” value (MCF7 [5]) was 4. It also gave an IC50 (Vero) of 3.6 µM, an IC50 (DU-145) of 14.1 µM and an IC50 [4] of 221 nM.
